Numbers after ± are expanded uncertainties.
Test: wn = mass fraction of the nth substance listed
Details: 295 K; for surface tension liquid-gas: Wilhelmi plate; for mass density / viscosity: 101.3 kPa, Liquid; for mass density: Buoyancy - hydrostatic balance; for viscosity: Concentric cylinders viscometry

N#C[S-].[K+] [potassium thiocyanate] + O
Details	mass density [kg/m3]	surface tension liquid-gas [mN/m]	viscosity [mPa·s]
w1 = 0.03	1013 ± 6	67.25 ± 1.1	0.834 ± 0.07
w1 = 0.05	1022 ± 6	61.98 ± 5.4	0.845 ± 0.07
w1 = 0.07	1031 ± 6	58.59 ± 13	0.825 ± 0.07
w1 = 0.1	1047 ± 6	57.2 ± 13	0.843 ± 0.07
w1 = 0.2	1100 ± 6	57.79 ± 4.6	0.881 ± 0.07
w1 = 0.3	1157 ± 6	–	0.916 ± 0.07
w1 = 0.4	1218 ± 6	55.45 ± 5.8	1.101 ± 0.07
w1 = 0.5	1283 ± 6	56.47 ± 5.4	1.321 ± 0.071
w1 = 0.6	1353 ± 6	62.93 ± 3.9	1.979 ± 0.071
w1 = 0.65	1392 ± 6	73.26 ± 1.2	2.588 ± 0.073
w1 = 0.68	1414 ± 6	74.62 ± 1.2	3.125 ± 0.074

Reference: the NIST ThermoML archive (doi:10.1021/acs.jced.7b00904)
